In the kinase profiling compilation of Christmann-Franck et al. (2016):

Assays:
Experiment in all cases: radiometric filter-binding kinase assay, Kinase HotSpot
Conditions in all cases: compound 0.5 µM; ATP 10 µM
MAPKAPK5 (human) = MAPKAPK5 (human) (UniProt Q8IW41)
CHUK (human) = CHUK (human) (UniProt O15111)
CDC42BPA (human) = CDC42BPA (human) (UniProt Q5VT25)
MAP3K3 (human) = MAP3K3 (human) (UniProt Q99759)
CLK3 (human) = CLK3 (human) (UniProt P49761)
IKBKB (human) = IKBKB (human) (UniProt O14920)
RPS6KA4 KD2 (human) = RPS6KA4 KD2 (human) (UniProt O75676)
EPHA2 (human) = EPHA2 (human) (UniProt P29317)
FER (human) = FER (human) (UniProt P16591)
PRKCB2 (human) = PRKCB2 (human) (UniProt P05771)
PDGFRB (human) = PDGFRB (human) (UniProt P09619)
SRPK1 (human) = SRPK1 (human) (UniProt Q96SB4)
GRK6 (human) = GRK6 (human) (UniProt P43250)
ADRBK2 (human) = ADRBK2 (human) (UniProt P35626)
INSRR (human) = INSRR (human) (UniProt P14616)
MAPK9 (human) = MAPK9 (human) (UniProt P45984)
CAMK1 (human) = CAMK1 (human) (UniProt Q14012)
PAK2 (human) = PAK2 (human) (UniProt Q13177)
AKT3 (human) = AKT3 (human) (UniProt Q9Y243)
FGR (human) = FGR (human) (UniProt P09769)
CDK9 CCNT1 (human) = CDK9 CCNT1 (human) (UniProt P50750+O60563)
PRKX (human) = PRKX (human) (UniProt P51817)
PAK3 (human) = PAK3 (human) (UniProt O75914)
ROCK1 (human) = ROCK1 (human) (UniProt Q13464)
PRKG2 (human) = PRKG2 (human) (UniProt Q13237)
VRK1 (human) = VRK1 (human) (UniProt Q99986)
CSNK1G1 (human) = CSNK1G1 (human) (UniProt Q9HCP0)
RPS6KB2 (human) = RPS6KB2 (human) (UniProt Q9UBS0)
MET (human) = MET (human) (UniProt P08581)
EPHA5 (human) = EPHA5 (human) (UniProt P54756)
WNK3 (human) = WNK3 (human) (UniProt Q9BYP7)
PRKCI (human) = PRKCI (human) (UniProt P41743)
SYK (human) = SYK (human) (UniProt P43405)
CDK5 CDK5R1 p25 (human) = CDK5 CDK5R1 p25 (human) (UniProt Q00535+Q15078)
MKNK2 (human) = MKNK2 (human) (UniProt Q9HBH9)
ROCK2 (human) = ROCK2 (human) (UniProt O75116)
ALK (human) = ALK (human) (UniProt Q9UM73)
MAPK8 (human) = MAPK8 (human) (UniProt P45983)
MAPK13 (human) = MAPK13 (human) (UniProt O15264)
PAK4 (human) = PAK4 (human) (UniProt O96013)
TSSK2 (human) = TSSK2 (human) (UniProt Q96PF2)
PAK1 (human) = PAK1 (human) (UniProt Q13153)

ALK (human), sequence (Q9UM73 whole entry, looked up): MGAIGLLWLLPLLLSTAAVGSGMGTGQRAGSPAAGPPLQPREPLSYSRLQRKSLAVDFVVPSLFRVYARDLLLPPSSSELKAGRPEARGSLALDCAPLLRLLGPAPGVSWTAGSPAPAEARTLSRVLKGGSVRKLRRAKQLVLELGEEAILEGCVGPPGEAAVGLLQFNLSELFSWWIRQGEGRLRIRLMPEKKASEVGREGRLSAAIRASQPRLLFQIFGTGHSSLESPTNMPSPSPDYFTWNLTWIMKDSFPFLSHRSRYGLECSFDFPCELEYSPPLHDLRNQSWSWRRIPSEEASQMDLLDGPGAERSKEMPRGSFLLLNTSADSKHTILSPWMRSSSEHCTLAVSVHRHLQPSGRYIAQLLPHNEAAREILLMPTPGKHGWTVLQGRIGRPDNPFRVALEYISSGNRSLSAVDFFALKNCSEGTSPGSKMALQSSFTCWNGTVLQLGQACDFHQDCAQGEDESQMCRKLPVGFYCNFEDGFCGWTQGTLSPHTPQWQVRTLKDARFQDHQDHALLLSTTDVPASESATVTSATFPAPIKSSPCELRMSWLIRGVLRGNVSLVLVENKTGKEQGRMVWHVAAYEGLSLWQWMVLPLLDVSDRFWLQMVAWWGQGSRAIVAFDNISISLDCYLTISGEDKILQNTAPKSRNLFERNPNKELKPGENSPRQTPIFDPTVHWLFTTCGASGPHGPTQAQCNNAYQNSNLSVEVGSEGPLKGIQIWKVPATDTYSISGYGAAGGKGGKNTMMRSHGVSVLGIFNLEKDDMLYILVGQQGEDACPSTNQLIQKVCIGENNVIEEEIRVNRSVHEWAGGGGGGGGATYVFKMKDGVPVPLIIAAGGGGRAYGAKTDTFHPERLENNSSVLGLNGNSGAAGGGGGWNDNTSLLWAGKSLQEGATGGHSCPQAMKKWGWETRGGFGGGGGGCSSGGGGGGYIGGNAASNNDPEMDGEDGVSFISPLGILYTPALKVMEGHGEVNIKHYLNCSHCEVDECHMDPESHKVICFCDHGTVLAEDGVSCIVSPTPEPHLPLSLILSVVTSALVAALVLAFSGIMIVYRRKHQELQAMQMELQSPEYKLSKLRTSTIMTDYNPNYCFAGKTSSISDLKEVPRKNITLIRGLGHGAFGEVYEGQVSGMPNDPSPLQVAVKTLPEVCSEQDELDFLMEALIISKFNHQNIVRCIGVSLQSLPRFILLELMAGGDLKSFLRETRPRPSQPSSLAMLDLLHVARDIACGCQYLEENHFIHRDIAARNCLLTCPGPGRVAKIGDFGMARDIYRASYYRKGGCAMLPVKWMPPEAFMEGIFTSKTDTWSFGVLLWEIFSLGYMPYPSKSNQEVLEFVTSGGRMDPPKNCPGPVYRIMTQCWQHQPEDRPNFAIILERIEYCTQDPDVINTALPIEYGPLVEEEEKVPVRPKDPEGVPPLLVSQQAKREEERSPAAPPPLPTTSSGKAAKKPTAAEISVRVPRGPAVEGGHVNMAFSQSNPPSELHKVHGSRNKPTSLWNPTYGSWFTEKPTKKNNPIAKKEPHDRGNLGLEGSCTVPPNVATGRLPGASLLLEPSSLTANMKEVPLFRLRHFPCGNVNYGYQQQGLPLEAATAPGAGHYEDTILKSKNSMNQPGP
TSSK2 (human), sequence (Q96PF2 whole entry, looked up): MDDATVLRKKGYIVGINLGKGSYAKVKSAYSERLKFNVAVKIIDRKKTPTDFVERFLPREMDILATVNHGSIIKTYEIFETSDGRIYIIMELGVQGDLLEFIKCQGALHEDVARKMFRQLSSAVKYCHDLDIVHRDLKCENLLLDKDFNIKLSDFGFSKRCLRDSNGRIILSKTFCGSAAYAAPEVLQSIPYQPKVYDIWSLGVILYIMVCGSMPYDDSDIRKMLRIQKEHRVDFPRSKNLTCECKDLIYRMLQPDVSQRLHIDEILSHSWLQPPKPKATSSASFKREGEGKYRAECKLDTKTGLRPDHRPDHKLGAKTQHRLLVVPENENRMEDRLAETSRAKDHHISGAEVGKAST
VRK1 (human), sequence (Q99986 whole entry, looked up): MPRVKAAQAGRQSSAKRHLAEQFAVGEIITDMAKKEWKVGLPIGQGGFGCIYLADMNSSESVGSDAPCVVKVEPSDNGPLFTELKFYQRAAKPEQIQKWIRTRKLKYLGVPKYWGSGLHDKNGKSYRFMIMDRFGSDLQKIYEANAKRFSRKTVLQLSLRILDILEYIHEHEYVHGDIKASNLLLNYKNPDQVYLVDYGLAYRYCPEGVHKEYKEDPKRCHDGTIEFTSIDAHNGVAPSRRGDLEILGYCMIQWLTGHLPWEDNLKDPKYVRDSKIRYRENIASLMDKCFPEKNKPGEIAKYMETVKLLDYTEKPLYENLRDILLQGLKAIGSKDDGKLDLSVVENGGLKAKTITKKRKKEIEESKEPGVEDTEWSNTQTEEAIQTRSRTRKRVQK
PAK3 (human), sequence (O75914 whole entry, looked up): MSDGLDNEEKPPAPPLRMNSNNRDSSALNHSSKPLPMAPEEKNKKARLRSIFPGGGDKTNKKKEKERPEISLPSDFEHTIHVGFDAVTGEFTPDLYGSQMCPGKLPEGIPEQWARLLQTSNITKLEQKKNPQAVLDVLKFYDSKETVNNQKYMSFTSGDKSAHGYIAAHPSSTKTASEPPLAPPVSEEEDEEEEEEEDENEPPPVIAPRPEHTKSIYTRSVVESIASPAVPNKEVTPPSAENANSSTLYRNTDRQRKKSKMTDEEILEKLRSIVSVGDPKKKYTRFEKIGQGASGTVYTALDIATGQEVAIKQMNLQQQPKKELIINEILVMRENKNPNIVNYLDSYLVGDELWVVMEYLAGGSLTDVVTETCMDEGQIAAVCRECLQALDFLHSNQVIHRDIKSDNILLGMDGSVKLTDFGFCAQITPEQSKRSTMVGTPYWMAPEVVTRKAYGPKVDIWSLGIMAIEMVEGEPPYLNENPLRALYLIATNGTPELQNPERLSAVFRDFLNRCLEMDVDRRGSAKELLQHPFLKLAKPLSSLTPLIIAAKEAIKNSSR
CDK9 CCNT1 (human), sequence (O60563 whole entry, looked up): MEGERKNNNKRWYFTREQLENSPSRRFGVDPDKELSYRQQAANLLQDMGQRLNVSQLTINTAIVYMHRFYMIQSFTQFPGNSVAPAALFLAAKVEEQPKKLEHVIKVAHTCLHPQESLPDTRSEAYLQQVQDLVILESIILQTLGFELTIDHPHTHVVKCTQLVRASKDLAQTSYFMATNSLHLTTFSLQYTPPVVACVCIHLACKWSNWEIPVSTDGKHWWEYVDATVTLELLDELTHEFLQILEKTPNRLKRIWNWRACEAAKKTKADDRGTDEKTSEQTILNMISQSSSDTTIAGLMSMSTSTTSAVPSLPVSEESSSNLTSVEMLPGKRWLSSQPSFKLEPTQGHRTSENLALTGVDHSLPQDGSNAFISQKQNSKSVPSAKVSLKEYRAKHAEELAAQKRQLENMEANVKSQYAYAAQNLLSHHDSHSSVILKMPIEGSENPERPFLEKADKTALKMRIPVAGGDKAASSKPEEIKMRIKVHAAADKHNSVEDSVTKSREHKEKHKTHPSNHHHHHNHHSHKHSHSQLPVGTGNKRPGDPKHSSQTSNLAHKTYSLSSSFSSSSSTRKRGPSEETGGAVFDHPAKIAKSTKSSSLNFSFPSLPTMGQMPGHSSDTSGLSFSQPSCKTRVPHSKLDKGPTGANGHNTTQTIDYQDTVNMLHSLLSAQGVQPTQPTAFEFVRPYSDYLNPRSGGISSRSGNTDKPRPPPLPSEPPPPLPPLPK
CDK9 CCNT1 (human), sequence (P50750 whole entry, looked up): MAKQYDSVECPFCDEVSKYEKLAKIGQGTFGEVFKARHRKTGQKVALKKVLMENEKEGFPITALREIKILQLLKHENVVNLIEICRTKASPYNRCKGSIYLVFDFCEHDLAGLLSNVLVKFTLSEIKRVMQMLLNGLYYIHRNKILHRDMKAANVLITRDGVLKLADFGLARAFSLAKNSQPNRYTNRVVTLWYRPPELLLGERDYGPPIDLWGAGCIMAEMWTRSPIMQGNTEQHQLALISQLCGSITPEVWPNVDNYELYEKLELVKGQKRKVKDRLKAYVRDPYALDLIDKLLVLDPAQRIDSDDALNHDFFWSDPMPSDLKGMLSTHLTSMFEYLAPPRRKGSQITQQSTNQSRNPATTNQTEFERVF
CHUK (human), sequence (O15111 whole entry, looked up): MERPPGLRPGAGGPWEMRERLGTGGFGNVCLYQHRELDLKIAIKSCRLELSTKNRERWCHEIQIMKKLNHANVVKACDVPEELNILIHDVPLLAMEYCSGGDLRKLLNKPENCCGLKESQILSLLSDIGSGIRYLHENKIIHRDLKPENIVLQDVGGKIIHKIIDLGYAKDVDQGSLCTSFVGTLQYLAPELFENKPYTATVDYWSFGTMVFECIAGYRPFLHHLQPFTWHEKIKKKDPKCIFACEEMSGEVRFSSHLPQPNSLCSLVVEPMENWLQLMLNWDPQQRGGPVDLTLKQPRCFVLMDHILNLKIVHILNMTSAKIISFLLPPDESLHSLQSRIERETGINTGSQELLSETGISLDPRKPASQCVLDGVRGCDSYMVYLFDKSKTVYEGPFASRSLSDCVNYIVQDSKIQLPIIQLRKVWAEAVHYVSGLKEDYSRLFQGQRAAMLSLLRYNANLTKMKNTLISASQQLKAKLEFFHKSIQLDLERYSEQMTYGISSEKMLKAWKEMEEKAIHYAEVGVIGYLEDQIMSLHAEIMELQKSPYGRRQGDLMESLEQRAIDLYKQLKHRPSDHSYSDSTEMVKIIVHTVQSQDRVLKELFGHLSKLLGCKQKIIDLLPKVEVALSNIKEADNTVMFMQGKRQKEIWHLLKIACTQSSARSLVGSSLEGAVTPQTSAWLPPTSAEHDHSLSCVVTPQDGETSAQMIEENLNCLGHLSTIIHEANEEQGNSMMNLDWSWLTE

Cc1cc(Nc2nc(-c3ccccc3)nc3ccccc23)n[nH]1
residual activity (MAPKAPK5 (human)): 93.2%
residual activity (CHUK (human)): 96.5%
residual activity (CDC42BPA (human)): 108%
residual activity (MAP3K3 (human)): 82.9%
residual activity (CLK3 (human)): 33.8%
residual activity (IKBKB (human)): 69.8%
residual activity (RPS6KA4 KD2 (human)): 108%
residual activity (EPHA2 (human)): 94.8%
residual activity (FER (human)): 31.6%
residual activity (PRKCB2 (human)): 87.3%
residual activity (PDGFRB (human)): 55.4%
residual activity (SRPK1 (human)): 90.1%
residual activity (GRK6 (human)): 75.8%
residual activity (ADRBK2 (human)): 106%
residual activity (INSRR (human)): 20.7%
residual activity (MAPK9 (human)): 92.4%
residual activity (CAMK1 (human)): 93.1%
residual activity (PAK2 (human)): 91.8%
residual activity (AKT3 (human)): 95.5%
residual activity (FGR (human)): 54.8%
residual activity (CDK9 CCNT1 (human)): 89.1%
residual activity (PRKX (human)): 101%
residual activity (PAK3 (human)): 90.2%
residual activity (ROCK1 (human)): 98.8%
residual activity (PRKG2 (human)): 98.2%
residual activity (VRK1 (human)): 81%
residual activity (CSNK1G1 (human)): 75.7%
residual activity (RPS6KB2 (human)): 99.7%
residual activity (MET (human)): 130%
residual activity (EPHA5 (human)): 90.6%
residual activity (WNK3 (human)): 74.9%
residual activity (PRKCI (human)): 82.6%
residual activity (SYK (human)): 61.9%
residual activity (CDK5 CDK5R1 p25 (human)): 98.7%
residual activity (MKNK2 (human)): 71.8%
residual activity (ROCK2 (human)): 87.6%
residual activity (ALK (human)): 75.9%
residual activity (MAPK8 (human)): 92%
residual activity (MAPK13 (human)): 106%
residual activity (PAK4 (human)): 84.2%
residual activity (TSSK2 (human)): 105%
residual activity (PAK1 (human)): 79.5%

O=C(O)c1ccc2c3c1cccc3c(=O)n1c3ccccc3nc21
residual activity (MAPKAPK5 (human)): 96%
residual activity (CHUK (human)): 114%
residual activity (CDC42BPA (human)): 96.1%
residual activity (MAP3K3 (human)): 81%
residual activity (CLK3 (human)): 95.4%
residual activity (IKBKB (human)): 109%
residual activity (RPS6KA4 KD2 (human)): 110%
residual activity (EPHA2 (human)): 102%
residual activity (FER (human)): 96.5%
residual activity (PRKCB2 (human)): 97%
residual activity (PDGFRB (human)): 107%
residual activity (SRPK1 (human)): 96.1%
residual activity (GRK6 (human)): 91.4%
residual activity (ADRBK2 (human)): 103%
residual activity (INSRR (human)): 101%
residual activity (MAPK9 (human)): 97.5%
residual activity (CAMK1 (human)): 101%
residual activity (PAK2 (human)): 97%
residual activity (AKT3 (human)): 104%
residual activity (FGR (human)): 98.9%
residual activity (CDK9 CCNT1 (human)): 78.3%
residual activity (PRKX (human)): 93.7%
residual activity (PAK3 (human)): 97.6%
residual activity (ROCK1 (human)): 104%
residual activity (PRKG2 (human)): 94.8%
residual activity (VRK1 (human)): 103%
residual activity (CSNK1G1 (human)): 99.5%
residual activity (RPS6KB2 (human)): 98%
residual activity (MET (human)): 104%
residual activity (EPHA5 (human)): 94.2%
residual activity (WNK3 (human)): 95.8%
residual activity (PRKCI (human)): 94.6%
residual activity (SYK (human)): 96%
residual activity (CDK5 CDK5R1 p25 (human)): 80.6%
residual activity (MKNK2 (human)): 57.2%
residual activity (ROCK2 (human)): 99%
residual activity (ALK (human)): 92.7%
residual activity (MAPK8 (human)): 98%
residual activity (MAPK13 (human)): 104%
residual activity (PAK4 (human)): 114%
residual activity (TSSK2 (human)): 106%
residual activity (PAK1 (human)): 95.6%

N#CCCc1ccc2c(c1)-c1[nH]c3ccc([N+](=O)[O-])cc3c1CC(=O)N2
residual activity (MAPKAPK5 (human)): 94.3%
residual activity (CHUK (human)): 105%
residual activity (CDC42BPA (human)): 73.1%
residual activity (MAP3K3 (human)): 83.3%
residual activity (CLK3 (human)): 108%
residual activity (IKBKB (human)): 96.3%
residual activity (RPS6KA4 KD2 (human)): 85.8%
residual activity (EPHA2 (human)): 93.6%
residual activity (FER (human)): 72.7%
residual activity (PRKCB2 (human)): 76.3%
residual activity (PDGFRB (human)): 83.9%
residual activity (SRPK1 (human)): 107%
residual activity (GRK6 (human)): 91.5%
residual activity (ADRBK2 (human)): 97.1%
residual activity (INSRR (human)): 99.2%
residual activity (MAPK9 (human)): 97.1%
residual activity (CAMK1 (human)): 96%
residual activity (PAK2 (human)): 55.6%
residual activity (AKT3 (human)): 95.5%
residual activity (FGR (human)): 31%
residual activity (CDK9 CCNT1 (human)): 28.6%
residual activity (PRKX (human)): 78.4%
residual activity (PAK3 (human)): 97.1%
residual activity (ROCK1 (human)): 38.9%
residual activity (PRKG2 (human)): 93.9%
residual activity (VRK1 (human)): 97.5%
residual activity (CSNK1G1 (human)): 81.6%
residual activity (RPS6KB2 (human)): 96.1%
residual activity (MET (human)): 119%
residual activity (EPHA5 (human)): 88.5%
residual activity (WNK3 (human)): 96.5%
residual activity (PRKCI (human)): 65.3%
residual activity (SYK (human)): 58%
residual activity (CDK5 CDK5R1 p25 (human)): 5.79%
residual activity (MKNK2 (human)): 87.7%
residual activity (ROCK2 (human)): 28.6%
residual activity (ALK (human)): 78.8%
residual activity (MAPK8 (human)): 93.1%
residual activity (MAPK13 (human)): 98.2%
residual activity (PAK4 (human)): 86.4%
residual activity (TSSK2 (human)): 78.7%
residual activity (PAK1 (human)): 52.1%
